Structures can show the parent of a compound that is named as a salt.
Legend:
Type in all cases: in vitro ADME
[1] = MatTek EpiAirway cell monolayer permeability of local anesthetics after excipient pre-treatment; settings: human, pH 6, EpiAirway, 10 mM test article, donor pH 6.0, 37° C., 0.5 hr
Procedure: The EpiAirway™ cell line is derived from normal human respiratory airway cells and models the mucosal tissue in the nasal cavity's respiratory airway, the main site of drug absorption following intranasal administration.
EpiAirway™ tissues were treated with the excipients (0.5% sodium caprate, 0.5% sodium deoxycholate, 0.5% polyoxyethylene 9 lauryl ether, and 0.5% lysophosphatidylcholine) for 20 min. The excipients were then washed off the EpiAirway™ tissues. […] The receiver wells contained standard transport buffer. The fluorescent marker Lucifer Yellow and atenolol (10 μM) were also included to monitor monolayer integrity at the end of the assay. The plates were incubated at 37° C. for 30 min. An aliquot of the receiver chamber was removed for analysis.
At the end of the incubation period, the donor plate was removed from the receiver plate. The donor and receiver samples were analyzed and quantified by LC-MS/MS (propranolol used as internal LC-MS standard).
To verify the monolayer integrity, aliquots of the cell buffers were analyzed by fluorescence and LC-MS/MS to determine the transport of the impermeable dye Lucifer Yellow and atenolol, respectively.
(§1) Data are expressed as permeability (Papp): Papp=(dQ/dt)/C0A
(§2) Where dQ/dt is the rate of permeation, C0 is the initial concentration of test agent, and A is the area of the monolayer.
For mass spectroscopy method development, the signal was optimized for each compound by electrospray ionization (ESI) in positive ionization mode. An MS2 scan was used to optimize the precursor ion mass, and an SIM scan was used to optimize the fragmenter voltage. Product ion analysis was used to identify the best fragment and collision energy for analysis.
Following MRM method optimization, a test injection was performed and an ionization ranking was assigned indicating the compound's ease of ionization.
(§3) Samples were analyzed by LC/MS/MS using an Agilent 6410 mass spectrometer coupled with an Agilent 1200 HPLC and a CTC PAL chilled autosampler, all controlled by MassHunter software (Agilent). After separation on a C18 reverse phase HPLC column (Agilent Zorbax StableBond 3.5 um, 2.1×30 mm) using an acetonitrile-water gradient, peaks were analyzed by mass spectrometry using ESI ionization in MRM mode. Diclofenac was utilized as an analytical internal standard (IS).

[2] = as above; settings: human, pH 6, EpiAirway, 10 mM test article, donor pH 6.0, 37° C., 0.5 hr; excipient: none
[3] = Caco-2 cell monolayer apical to basolateral permeability of local anesthetic after excipient pre-treatment; settings: human, Caco-2, pH 6, Caco-2, A→B, 10 mM Tetracaine HCl, apical pH 6.0, 0.5 hr
Procedure: (§4) A first experiment was performed to test the ability of a mucosal absorption enhancer to promote transport of a local anesthetic agent across a mucosal epithelial cell monolayer. In this experiment, the Caco-2 cell line (an intestinal mucosal cell line) was grown and maintained at a pH of 6.0 for the length of time sufficient to establish tight junctions between the cells in the monolayer. After formation of the monolayer, sodium caprate was administered to the apical side of the Caco-2 cell monolayer at a concentration depending on the given test sample. After 20 minutes, the sodium caprate was washed off of the monolayer. Tetracaine hydrochloride was then administered to the apical side of the Caco-2 cell monolayer at a concentration of 10 mM. An additional test sample including tetracaine but lacking sodium caprate was also administered to the apical side of a separate Caco-2 cell monolayer as a control. The assay duration was 30 minutes. The apical to basolateral permeability rate coefficient of tetracaine across the Caco-2 cell monolayer was determined by LC/MS/MS for each test composition. The permeability rate coefficient (Papp) was based on the percent of the drug that is transported across the epithelial monolayer as a function of time and surface area of the monolayer. Drug permeability across the Caco-2 cell monolayers is a well-known model of transmucosal drug absorption in humans.
(§5) Caco-2 cells grown in tissue culture flasks were trypsinized, suspended in medium, and the suspensions were applied to wells of a Millipore 96 well Caco-2 plate. The cells were allowed to grow and differentiate for three weeks, feeding at 2-day intervals.
(§6) The Caco-2 cells were treated with the excipient (sodium caprate) for 20 minutes at concentrations of 0.2%, 0.5%, 1.0%, and 2.0%. The excipient was then washed off of the Caco-2 cell monolayer. For Apical to Basolateral (A→B) permeability, the test agent (10 mM Tetracaine HCl) was added to the apical (A) side and amount of permeation was determined on the basolateral (B) side. The A-side buffer contained 100 μM Lucifer Yellow (LY) dye and 10 μM Atenolol, in Transport Buffer (1.98 g/L glucose in 10 mM HEPES, 1× Hank's Balanced Salt Solution without Mg2+ and Ca2+) pH 6.0 for test articles. The B-side buffer was standard Transport Buffer, pH 7.4. Caco-2 cells were incubated with these buffers for 0.5 hr, and the receiver side buffer was removed for analysis by LC/MS/MS (propranolol used as internal LC/MS standard).
(§7) To verify that the Caco-2 cell monolayers were properly formed (and remained intact during the assay), aliquots of the cell buffers were analyzed by fluorescence and LC/MS/MS to determine the transport of the impermeable dye Lucifer Yellow and atenolol, respectively. Any deviations from control values are reported.
as §1, §2
(§8) For analytical method development, the analyte signal was optimized for each compound by ESI positive or negative ionization mode. An MS2 scan or an SIM scan was used to optimize the fragmenter voltage and a product ion analysis was used to identify the best fragment for analysis, and the collision energy was optimized using a product ion or MRM scan. An ionization ranking was assigned indicating the compound's ease of ionization.
as §3, with “μm,” for “um,”, “gradient system,” for “gradient,”, “spectrometry (MS)” for “spectrometry”, “mode.” for “mode. Diclofenac was utilized as an analytical internal standard (IS).”

Caco-2 cell monolayer = test: as above; settings: Caco-2; sodium caprate 0.2-2.0% versus no excipient; dose dependent
Procedure: as §4, §5, §6, §7, §1, §2, §8
as §3, with “μm,” for “um,”, “gradient system,” for “gradient,”, “spectrometry (MS)” for “spectrometry”, “mode.” for “mode. Diclofenac was utilized as an analytical internal standard (IS).”

[4] = 20 min pre-treatment with 0.5% Lysophosphatidylcholine
[5] = 20 min pre-treatment with 0.5% Polyoxyethylene 9 Lauryl Ether
[6] = 20 min pre-treatment with 0.5% Sodium Caprate
[7] = 20 min pre-treatment with 0.5% Sodium Deoxycholate

With `CCCCN1CCCCC1C(=O)Nc1c(C)cccc1C` (stereo not shown) [Bupivacaine, Bupivacaine HCl] as the compound, how does the Papp A→B at 30 min, 10 mM [1, 4] read?
The Papp A→B at 30 min, 10 mM was 1730 nm/s.

And the Papp A→B at 30 min, 10 mM [1, 5]?
The Papp A→B at 30 min, 10 mM was 1890 nm/s.

What about the Papp A→B at 30 min, 10 mM [1, 6] of the same compound?
Its Papp A→B at 30 min, 10 mM is 1160 nm/s.

And the Papp A→B at 30 min, 10 mM [1, 7]?
Its Papp A→B at 30 min, 10 mM is 2180 nm/s.

What about the Papp A→B at 30 min, 10 mM [2] of the same compound?
The Papp A→B at 30 min, 10 mM was 192 nm/s.

For `CCCCNc1ccc(C(=O)OCCN(C)C)cc1` [Tetracaine, Tetracaine HCl], which Papp A→B at 0.5 hr, 10 mM ([3]; 20 min pre-treatment with 0.2% Sodium Caprate) is on record?
Its Papp A→B at 0.5 hr, 10 mM is 322 nm/s.

And the Papp A→B at 0.5 hr, 10 mM [3, 6]?
The Papp A→B at 0.5 hr, 10 mM was 559 nm/s.

What about the Papp A→B at 0.5 hr, 10 mM ([3]; 20 min pre-treatment with 1.0% Sodium Caprate) of the same compound?
Its Papp A→B at 0.5 hr, 10 mM is 548 nm/s.

And the Papp A→B at 0.5 hr, 10 mM ([3]; 20 min pre-treatment with 2.0% Sodium Caprate)?
Its Papp A→B at 0.5 hr, 10 mM is 1390 nm/s.

What about the Papp A→B at 0.5 hr, 10 mM ([3]; excipient: None) of the same compound?
Its Papp A→B at 0.5 hr, 10 mM is 177 nm/s.

And the “effect of sodium caprate on permeability across a mucosal epithelial cell monolayer” value (Caco-2 cell monolayer)?
Its value is “significantly improved the permeability”.

What about the Papp A→B at 30 min, 10 mM [1, 4] of the same compound?
Its Papp A→B at 30 min, 10 mM is 716 nm/s.

And the Papp A→B at 30 min, 10 mM [1, 5]?
Its Papp A→B at 30 min, 10 mM is 1260 nm/s.

What about the Papp A→B at 30 min, 10 mM [1, 6] of the same compound?
The Papp A→B at 30 min, 10 mM was 568 nm/s.

And the Papp A→B at 30 min, 10 mM [1, 7]?
Its Papp A→B at 30 min, 10 mM is 1550 nm/s.

And the Papp A→B at 30 min, 10 mM [2]?
The Papp A→B at 30 min, 10 mM was 108 nm/s.

From US20190133930A1, “Methods of Anesthetizing Nerve Tissue in the Trigeminal Nerve Pathway and Medical Uses Thereof” (Apollonia, LLC, priority 2014, published 2019)
